Reference: article PMC6829536 (International Journal of Molecular Sciences, 2019)

Columns and labels:
WT CaFADS [1] = biological target: T1, WT CaFADS (Corynebacterium ammoniagenes, UniProt Q59263); assay: Isothermal titration calorimetry (ITC) of ligand binding at the FMNAT site; details: 20 mM PIPES
T1 construct: made in house; host or cells: Escherichia coli

P56W CaFADS = biological target: T2, P56W CaFADS (Corynebacterium ammoniagenes, UniProt Q59263, P56W); assay: as above; details: for -TΔS / ΔH / ΔG: P56W CaFADS, 20 mM PIPES
T2 construct: made in house; host or cells: E. coli BL21(DE3)

P58W CaFADS = biological target: T3, P58W CaFADS (Corynebacterium ammoniagenes, UniProt Q59263, P58W); assay: as above; details: 20 mM PIPES
T3 construct: made in house; host or cells: E. coli BL21(DE3)

P56A/P58A CaFADS = biological target: T4, P56A/P58A CaFADS (Corynebacterium ammoniagenes, UniProt Q59263, P56A/P58A); assay: as above; details: 20 mM PIPES
T4 construct: made in house; host or cells: E. coli BL21(DE3)

L98A CaFADS = biological target: T5, L98A CaFADS (Corynebacterium ammoniagenes, UniProt Q59263, L98A); assay: as above; details: 20 mM PIPES
T5 construct: made in house; host or cells: E. coli BL21(DE3)

L98K CaFADS = biological target: T6, L98K CaFADS (Corynebacterium ammoniagenes, UniProt Q59263, L98K); assay: as above; details: 20 mM PIPES, pH 7.0, no MgCl2
T6 construct: made in house; host or cells: E. coli BL21(DE3)

L98W CaFADS = biological target: T7, L98W CaFADS (Corynebacterium ammoniagenes, UniProt Q59263, L98W); assay: as above; details: 20 mM PIPES
T7 construct: made in house; host or cells: E. coli BL21(DE3)

WT CaFADS [2] = biological target: T1, WT CaFADS; details: cited from earlier work
CaFADS variants [3] = assay: Difference spectroscopy of flavin binding at the FMNAT site; parameters: species or system Corynebacterium ammoniagenes; details: all variants, 20 mM PIPES, 10 mM MgCl2, pH 7.0, 25 °C
Method: Spectroscopic measurements were carried out following previously established conditions and protocols. UV–visible absorption spectra were recorded in a Cary 100 spectrophotometer (Agilent Technologies, Santa Clara, CA, USA). Experimental extinction coefficients at 279 nm (ε^279) for each variant were determined based on the Gill and von Hippel method. In short, the UV–visible absorbance spectrum of the protein was recorded. Then samples were denatured with guanidinium hydrochloride (6 M in 20 mM sodium phosphate, pH 6.5). Then, the absorbance spectrum of the denatured sample was recorded and its concentration was calculated considering the theoretical extinction coefficient determined using the amino acid sequence. This concentration, taking into account the protein dilution in the denaturation process, was then used to determine ε^279 at the protein maximum by using the native protein spectrum before denaturation. Difference spectroscopy measurements were carried out in 20 mM PIPES, 10 mM MgCl2, pH 7.0, with saturating concentrations of ligands. Circular dichroism (CD) spectra were recorded using a Chirascan spectropolarimeter (Appl. Phot. Ltd., Leatherhead, Surrey, UK) at 25 °C. […]

CaFADS variants [4] = assay: Qualitative detection of RFK, FMNAT and FADpp activities by TLC; type: biochemical, Corynebacterium ammoniagenes; details: all variants, 200 nM enzyme, 50 μM flavin, 0.2 mM ATP, 10 mM MgCl2, pH 7.0, 30 min and 2 h
Method: RFK and FMNAT activities were qualitatively assayed by the incubation of enzymes with substrates and separation of flavins (substrates and products) from reaction mixtures using TLC on Silica Gel SIL-G-25 plates (20 × 20 cm, thickness 0.25 mm) as previously described. […] Reactions were stopped by boiling the preparations for 5 min. Flavin spots were visualized under UV light.

[5] = system: Cc1cc2nc3c(=O)[nH]c(=O)nc-3n(C[C@H](O)[C@H](O)[C@H](O)CO)c2cc1C; assay: purified protein, by the assay type; type: biochemical, Corynebacterium ammoniagenes; details: RF varied, saturating ATP, apparent value, 20 mM PIPES, 0.8 mM MgCl2, pH 7.0, 25 °C
Method: Reactions were initiated by the addition of ~20 nM of enzyme. After 1 min incubation at 25 °C, the reactions were stopped by boiling the mixtures for 5 min. The composition of flavins in the supernatant was determined using an Alliance HPLC system (Waters, Milford, MA, USA) equipped with a 2707 autosampler and a HSST3 column (4.6 × 150 mm, 3.5 µm, Waters) preceded by a pre-column (4.6 × 20 mm, 3.5 µm, Waters). The chromatography was developed at 1 mL/min with a 6 min isocratic program of methanol 40% (v/v) in 5 mM ammonium acetate (pH 6.0). Detection of flavins was carried out using a 2475 Multi λ fluorescence detector (Waters), excitation wavelength of 470 nm and emission wavelength of 530 nm. […] The flavinic products of the reaction were identified by their retention times and quantified through their corresponding standard curves obtained under the same conditions. Controls containing free flavins in the absence of the enzyme were treated similarly to reaction samples to discard flavin degradation during RFK activity determination. […] In case of inhibition, the experimental data were fitted to a model describing the substrate inhibition of a bi-substrate mechanism. In these situations, errors in apparent Km and kcat (^appKm and ^appkcat) increased with the inhibition constant (Ki) value getting closer to Km^S. Reaction mixtures were evaluated in triplicates, and final results are expressed as the standard error of the fitted value (value ± SE).

[6] = 10 mM MgCl2, pH 7.0, n.d. = no interaction profile was detected

Compound: Nc1ncnc2c1ncn2[C@@H]1O[C@H](COP(=O)(O)OP(=O)(O)OP(=O)(O)O)[C@@H](O)[C@H]1O [ATP, Adenosine 5′-triphosphate]
- -TΔS (WT CaFADS [1]; pH 7.0, no MgCl2): 39 ± 6 kcal/mol
- ΔH (WT CaFADS [1]; pH 7.0, no MgCl2): -44 ± 6 kcal/mol
- -TΔS (P56W CaFADS; pH 7.0, no MgCl2): 11 ± 2 kcal/mol
- ΔH (P56W CaFADS; pH 7.0, no MgCl2): -16 ± 3 kcal/mol
- -TΔS (P58W CaFADS; pH 7.0, no MgCl2): -3.8 ± 0.1 kcal/mol
- ΔG (P58W CaFADS; pH 7.0, no MgCl2): -6.5 ± 0.1 kcal/mol
- ΔH (P58W CaFADS; pH 7.0, no MgCl2): -2.7 ± 0.1 kcal/mol
- -TΔS (P56A/P58A CaFADS; pH 7.0, no MgCl2): -3.6 ± 0.2 kcal/mol
- ΔG (P56A/P58A CaFADS; pH 7.0, no MgCl2): -6.4 ± 0.1 kcal/mol
- ΔH (P56A/P58A CaFADS; pH 7.0, no MgCl2): -2.8 ± 0.2 kcal/mol
- -TΔS (L98A CaFADS; pH 7.0, no MgCl2): 15 ± 2 kcal/mol
- ΔG (L98A CaFADS; pH 7.0, no MgCl2): -5.6 ± 0.1 kcal/mol
- ΔH (L98A CaFADS; pH 7.0, no MgCl2): -20 ± 3 kcal/mol
- -TΔS (L98K CaFADS): 33 ± 19 kcal/mol
- ΔG (L98K CaFADS): -5.6 ± 0.2 kcal/mol
- ΔH (L98K CaFADS): -39 ± 19 kcal/mol
- -TΔS (L98W CaFADS; pH 7.0, no MgCl2): 26 ± 6 kcal/mol
- ΔH (L98W CaFADS; pH 7.0, no MgCl2): -32 ± 6 kcal/mol
- kcat (WT CaFADS [2]; ATP varied, RF at ~80% of maximum activity, apparent value, 20 mM PIPES, 0.8 mM MgCl2, pH 7.0, 25 °C): 155 ± 5 min⁻¹
- Km (WT CaFADS [2]; read-out: Km^ATP, ATP varied, RF at ~80% of maximum activity, 20 mM PIPES, 0.8 mM MgCl2, pH 7.0, 25 °C): 28 ± 4 µM

Compound: Cc1cc2nc3c(=O)[nH]c(=O)nc-3n(C[C@H](O)[C@H](O)[C@H](O)COP(=O)(O)OP(=O)(O)OC[C@H]3O[C@@H](n4cnc5c(N)ncnc54)[C@H](O)[C@@H]3O)c2cc1C [FAD, Riboflavin 5′-adenosine diphosphate]
- -TΔS (WT CaFADS [1]; 10 mM MgCl2, pH 7.0): 18 ± 1 kcal/mol
- ΔH (WT CaFADS [1]; 10 mM MgCl2, pH 7.0): -26 ± 1 kcal/mol
- -TΔS (P56W CaFADS; 10 mM MgCl2, pH 7.0): -6.1 ± 0.1 kcal/mol
- ΔG (P56W CaFADS; 10 mM MgCl2, pH 7.0): -6.9 ± 0.1 kcal/mol
- ΔH (P56W CaFADS; 10 mM MgCl2, pH 7.0): -0.9 ± 0.1 kcal/mol
- -TΔS (P58W CaFADS; 10 mM MgCl2, pH 7.0): -7.0 ± 0.1 kcal/mol
- ΔG (P58W CaFADS; 10 mM MgCl2, pH 7.0): -7.6 ± 0.1 kcal/mol
- ΔH (P58W CaFADS; 10 mM MgCl2, pH 7.0): -0.56 ± 0.02 kcal/mol
- -TΔS (P56A/P58A CaFADS; 10 mM MgCl2, pH 7.0): -7.4 ± 0.1 kcal/mol
- ΔG (P56A/P58A CaFADS; 10 mM MgCl2, pH 7.0): -7.8 ± 0.1 kcal/mol
- ΔH (P56A/P58A CaFADS; 10 mM MgCl2, pH 7.0): -0.39 ± 0.1 kcal/mol
- -TΔS (L98W CaFADS; 10 mM MgCl2, pH 7.0): -6.9 ± 0.1 kcal/mol
- ΔG (L98W CaFADS; 10 mM MgCl2, pH 7.0): -7.4 ± 0.1 kcal/mol
- ΔH (L98W CaFADS; 10 mM MgCl2, pH 7.0): -0.6 ± 0.1 kcal/mol
- difference spectra on titration with FAD (CaFADS variants [3]; saturating FAD): hardly produced difference spectra

Compound: Cc1cc2nc3c(=O)[nH]c(=O)nc-3n(C[C@H](O)[C@H](O)[C@H](O)COP(=O)(O)O)c2cc1C [FMN, Riboflavin 5′-phosphate]
- -TΔS (WT CaFADS [1]; 10 mM MgCl2, pH 7.0): 15 ± 1 kcal/mol
- ΔH (WT CaFADS [1]; 10 mM MgCl2, pH 7.0): -22 ± 1 kcal/mol
- Kd^FMN lower than WT (P56W CaFADS; P56W CaFADS vs WT): up to 4 fold
- -TΔS (P56W CaFADS; 10 mM MgCl2, pH 7.0): -6.5 ± 0.1 kcal/mol
- ΔG (P56W CaFADS; 10 mM MgCl2, pH 7.0): -7.9 ± 0.1 kcal/mol
- ΔH (P56W CaFADS; 10 mM MgCl2, pH 7.0): -1.4 ± 0.1 kcal/mol
- -TΔS (P58W CaFADS; 10 mM MgCl2, pH 7.0): -7.3 ± 0.1 kcal/mol
- ΔG (P58W CaFADS; 10 mM MgCl2, pH 7.0): -8.6 ± 0.1 kcal/mol
- ΔH (P58W CaFADS; 10 mM MgCl2, pH 7.0): -1.3 ± 0.1 kcal/mol
- ΔG (P56A/P58A CaFADS; 10 mM MgCl2, pH 7.0): -8.8 ± 0.1 kcal/mol
- ΔH (P56A/P58A CaFADS; 10 mM MgCl2, pH 7.0): -1.8 ± 0.1 kcal/mol
- -TΔS (L98A CaFADS; [6]): -7.9 ± 0.1 kcal/mol
- ΔG (L98A CaFADS; [6]): -9.0 ± 0.1 kcal/mol
- ΔH (L98A CaFADS; [6]): -1.2 ± 0.1 kcal/mol
- -TΔS (L98W CaFADS; 10 mM MgCl2, pH 7.0): -7.2 ± 0.1 kcal/mol
- ΔG (L98W CaFADS; 10 mM MgCl2, pH 7.0): -8.7 ± 0.1 kcal/mol
- ΔH (L98W CaFADS; 10 mM MgCl2, pH 7.0): -1.5 ± 0.1 kcal/mol
- FMNAT activity (transformation of FMN into FAD), qualitative (CaFADS variants [4]): none of the variants was neither capable of catalyzing the transformation of FMN into FAD
- difference spectra after incubation with FMN (CaFADS variants [3]; saturating FMN): All the variants produced difference spectra

Compound: L98A CaFADS (Corynebacterium ammoniagenes; L98A)
- Km ([5]; other: L98A CaFADS): 1.5 ± 0.7 µM

Compound: L98K CaFADS (Corynebacterium ammoniagenes; L98K)
- Km ([5]; other: L98K CaFADS): 4.0 ± 1.1 µM

Compound: L98W CaFADS (Corynebacterium ammoniagenes; L98W)
- Km ([5]; other: L98W CaFADS): 1.6 ± 0.6 µM

Compound: P56A/P58A CaFADS (Corynebacterium ammoniagenes; P56A/P58A)
- Km ([5]; other: P56A/P58A CaFADS): 0.9 ± 0.4 µM

Compound: P56W CaFADS (Corynebacterium ammoniagenes; P56W)
- Km ([5]; other: P56W CaFADS): 0.4 ± 0.1 µM

Compound: P58W CaFADS (Corynebacterium ammoniagenes; P58W)
- Km ([5]; other: P58W CaFADS): 1.3 ± 0.7 µM
